Reference: ChEMBL document CHEMBL1129674, “Design, synthesis, and biological activity of a potent inhibitor of the neuropeptidase N-acetylated alpha-linked acidic dipeptidase” (J Med Chem, 1996)

Assays:
Format in all cases: functional
[1] = species on record: Rattus norvegicus; experiment: In vitro effect KCL-Evoked Giutamate at 10.0 nM
[2] = species on record: Rattus norvegicus; experiment: In vitro effect of compound on Basal Glutamate Efflux at 0.1 nM
[3] = species on record: Rattus norvegicus; experiment: In vitro effect of compound on Basal Glutamate Efflux at 10.0 nM
[4] = species on record: Rattus norvegicus; experiment: In vitro effect of compound on Basal Glutamate Efflux at 1.0 nM
[5] = species on record: Rattus norvegicus; experiment: In vitro effect KCL-Evoked Glutamate at 1.0 nM
[6] = species on record: Rattus norvegicus; experiment: In vitro effect KCL-Evoked Giutamate at 0.1 nM

O=C(O)CCC(CP(=O)(O)O)C(=O)O (stereo unspecified)
Release [1]: 437 | Efflux [2]: 151% | Efflux [3]: 167% | Efflux [4]: 137% | Release [5]: 368 | Release [6]: 316
